Assay [1] can be described thus: Inhibition of MOR-mediated HIV1 BaL01 infection in GFP-tagged human OPRM1 transfected TZM-bl cells co-expressing HIV1 - LTR assessed as inhibition of viral entry in presence of morphine by measuring LTR-driven luciferase activity pretreated for 1 hr before infection measured after 2 to 3 days of infection.
The nature of assay [2]: Inhibition of MOR-mediated HIV1 BaL01 infection in GFP-tagged human OPRM1 transfected TZM-bl cells co-expressing HIV1 - LTR assessed as inhibition of viral entry by measuring LTR-driven luciferase activity pretreated for 1 hr before infection measured after 2 to 3 days of infection.
The nature of assay [3]: Inhibition of CCR5-mediated HIV-1 Bal entry in human GHOST CCR5 cells assessed as decrease in viral reverse transcriptase activity by measuring [3H]thymidine triphosphate incorporation measured after 60 to 90 mins by scintillation counting analysis.

As for `CC(C)c1nnc(CCNC(=O)COCC(=O)NCCCCCCCNC(=O)COCC(=O)N[C@@H]2CC[C@@]3(O)[C@H]4Cc5ccc(O)c6c5[C@@]3(CCN4CC3CC3)[C@H]2O6)n1C1C[C@H]2CC[C@@H](C1)N2CC[C@H](NC(=O)C1CCC(F)(F)CC1)c1ccccc1` (some centres undefined), the values for the EC50 in assay [1], in assay [2] and in assay [3] were 247 nM, 368 nM and 93 nM, respectively.

Consider `Cc1nnc(C(C)C)n1C1C[C@H]2CC[C@@H](C1)N2CC[C@H](NC(=O)C1CCC(F)(F)CC1)c1ccc(NC(=O)COCC(=O)NCCCCCCCNC(=O)COCC(=O)N[C@@H]2CC[C@@]3(O)[C@H]4Cc5ccc(O)c6c5[C@@]3(CCN4CC3CC3)[C@H]2O6)cc1` (some centres undefined), for which the EC50 in assay [3] was above 100000 nM.

What is called EC50 is the concentration giving half of the maximal effect.
